Consider 15 compounds from patent US20190031676A1, “ANTIBACTERIAL ANNULATED PYRROLIDIN-2-ONE DERIVATIVES” (priority 2015, published 2019).

Common to all, as to assay: Bacterial growth minimal inhibitory concentration (microdilution, cation-adjusted Mueller-Hinton Broth)
Common to all, as to type: cell-based
Background: In broth dilution the organism is exposed to a series of concentrations in liquid medium.

The subject of one assay is E. coli ATCC25922. The following applies: quinolone-sensitive strain; for MIC: Escherichia coli, ATCC25922. Here is the method: (§1) Minimal Inhibitory Concentrations (MICs; mg/L) were determined in cation-adjusted Mueller-Hinton Broth by a microdilution method following the description given in “Methods for Dilution Antimicrobial Susceptibility Tests for Bacteria that grow Aerobically”, Approved standard, 7th ed., Clinical and Laboratory Standards Institute (CLSI) Document M7-A7, Wayne, Pa., USA (2006).
(§2) All Example compounds were tested against several Gram-positive and Gram-negative bacteria. […] K. pneumoniae A-651 is a multiply-resistant strain (in particular quinolone-resistant), while E. coli ATCC25922 and P. aeruginosa ATCC27853 are quinolone-sensitive strains.

Another assay has as its system K. pneumoniae A-651. The following applies: multiply-resistant strain (in particular quinolone-resistant); for MIC: Klebsiella pneumoniae, A651. Here is the method: as §1, §2
A further assay concerns P. aeruginosa ATCC27853. The following applies: quinolone-sensitive strain; for MIC: Pseudomonas aeruginosa, ATCC27853. The protocol:
as §1, §2

≈ marks a conversion by molar mass, not a printed value.

Broadly, the MIC is the lowest concentration found to suppress growth. With `CN1C[C@@H](C#CC#Cc2cc3c(s2)C(=O)N(CC[C@](C)(C(=O)NO)S(C)(=O)=O)C3)[C@@H]1CO` [Example 35, (2R)—N-hydroxy-4-(2-(((2R,3R)-2-(hydroxymethyl)-1-methylazetidin-3-yl)buta-1,3-diyn-1-yl)-6-oxo-4,6-dihydro-5H-thieno[2,3-c]pyrrol-5-yl)-2-methyl-2-(methylsulfonyl)butanamide], the MIC with E. coli ATCC25922 came out at 0.5 µg/mL (≈ 1.04 µM); with K. pneumoniae A-651, 2 µg/mL (≈ 4.17 µM); against P. aeruginosa ATCC27853, 1 µg/mL (≈ 2.09 µM).
Taken in the same sequence, the figures for `C[C@@](CCN1Cc2cc(C#CC#CCOC(=O)N3CC(O)C3)sc2C1=O)(C(=O)NO)S(C)(=O)=O` [Example 6, (3R)-5-(5-(4-(hydroxyamino)-3-methyl-3-(methylsulfonyl)-4-oxobutyl)-6-oxo-5,6-dihydro-4H-thieno[2,3-c]pyrrol-2-yl)penta-2,4-diyn-1-yl 3-hydroxyazetidine-1-carboxylate] were 1 µg/mL (≈ 1.96 µM), 1 µg/mL (≈ 1.96 µM) and 2 µg/mL (≈ 3.92 µM).
Taken in the same sequence, the figures for `CN1CC(C#CC#Cc2cc3c(s2)C(=O)N(CC[C@](C)(C(=O)NO)S(C)(=O)=O)C3)C1` [Example 11, (2R)—N-hydroxy-2-methyl-4-(2-((1-methylazetidin-3-yl)buta-1,3-diyn-1-yl)-6-oxo-4,6-dihydro-5H-thieno[2,3-c]pyrrol-5-yl)-2-(methylsulfonyl)butanamide] were 0.25 µg/mL (≈ 0.556 µM), 1 µg/mL (≈ 2.22 µM) and 0.5 µg/mL (≈ 1.11 µM).
Taken in the same sequence, the figures for `C[C@@](CCN1Cc2cc(C#CC#CC3CN(CC4(O)COC4)C3)sc2C1=O)(C(=O)NO)S(C)(=O)=O` [Example 39, (2R)—N-hydroxy-4-(2-((1-((3-hydroxyoxetan-3-yl)methyl)azetidin-3-yl)buta-1,3-diyn-1-yl)-6-oxo-4,6-dihydro-5H-thieno[2,3-c]pyrrol-5-yl)-2-methyl-2-(methylsulfonyl)butanamide] were 1 µg/mL (≈ 1.92 µM), 2 µg/mL (≈ 3.83 µM) and 2 µg/mL (≈ 3.83 µM).
As for `C[C@@](CCN1Cc2cc(C#CC#CC3CN([C@H]4C[C@@H](O)C4)C3)sc2C1=O)(C(=O)NO)S(C)(=O)=O` [Example 31, (2R)—N-hydroxy-4-(2-((1-((1s,3s)-3-hydroxycyclobutyl)azetidin-3-yl)buta-1,3-diyn-1-yl)-6-oxo-4,6-dihydro-5H-thieno[2,3-c]pyrrol-5-yl)-2-methyl-2-(methylsulfonyl)butanamide], the “MIC for E. coli ATCC25922” value with E. coli ATCC25922 turned out to be 0.5 µg/mL. The “MIC for K. Pneumoniae A-651” value against K. pneumoniae A-651 was 0.5 µg/mL. Besides, the “MIC for P. aeruginosa ATCC27853” value against P. aeruginosa ATCC27853 amounted to 1 µg/mL.
With `C[C@@](CCN1Cc2cc(C#Cc3ccc(CN4CC(F)C4)cc3)sc2C1=O)(C(=O)NO)S(C)(=O)=O` [Example 14, (2R)-4-(2-((4-((3-fluoroazetidin-1-yl)methyl)phenyl)ethynyl)-6-oxo-4,6-dihydro-5H-thieno[2,3-c]pyrrol-5-yl)-N-hydroxy-2-methyl-2-(methylsulfonyl)butanamide], the values for the MIC in the assay on E. coli ATCC25922, with K. pneumoniae A-651 and against P. aeruginosa ATCC27853 were 0.031 µg/mL (≈ 0.0597 µM), 0.25 µg/mL (≈ 0.481 µM) and 2 µg/mL (≈ 3.85 µM), respectively.
The corresponding values for `C[C@@](CCN1Cc2cc(C#CC#CC3CN(C4CCOCC4)C3)sc2C1=O)(C(=O)NO)S(C)(=O)=O` [Example 27, (2R)—N-hydroxy-2-methyl-2-(methylsulfonyl)-4-(6-oxo-2-((1-(tetrahydro-2H-pyran-4-yl)azetidin-3-yl)buta-1,3-diyn-1-yl)-4,6-dihydro-5H-thieno[2,3-c]pyrrol-5-yl)butanamide] are 0.125 µg/mL (≈ 0.241 µM), 0.25 µg/mL (≈ 0.481 µM) and 1 µg/mL (≈ 1.92 µM).
On to `C[C@@](CCN1Cc2cc(C#Cc3ccc(C4CN(C5COC5)C4)cc3)sc2C1=O)(C(=O)NO)S(C)(=O)=O` [Example 29, (2R)—N-hydroxy-2-methyl-2-(methylsulfonyl)-4-(2-((4-(1-(oxetan-3-yl)azetidin-3-yl)phenyl)ethynyl)-6-oxo-4,6-dihydro-H-thieno[2,3-c]pyrrol-5-yl)butanamide], for which the “MIC for E. coli ATCC25922” value against E. coli ATCC25922 stood at 0.25 µg/mL. In the assay with K. pneumoniae A-651, the “MIC for K. Pneumoniae A-651” value worked out at 1 µg/mL. The “MIC for P. aeruginosa ATCC27853” value against P. aeruginosa ATCC27853 was found to be 2 µg/mL.
For the compound `C[C@@](CCN1Cc2cc(C#CC#C[C@H]3C[C@@H]3[C@@H](O)CO)sc2C1=O)(C(=O)NO)S(C)(=O)=O` [Example 22, (2R)-4-(2-(((1S,2S)-2-((2R)-1,2-dihydroxyethyl)cyclopropyl)buta-1,3-diyn-1-yl)-6-oxo-4,6-dihydro-5H-thieno[2,3-c]pyrrol-5-yl)-N-hydroxy-2-methyl-2-(methylsulfonyl)butanamide], the “MIC for E. coli ATCC25922” value in the assay with E. coli ATCC25922 amounted to 0.5 µg/mL. Besides, in the assay with K. pneumoniae A-651, the “MIC for K. Pneumoniae A-651” value is 1 µg/mL. Also, in the assay on P. aeruginosa ATCC27853, the “MIC for P. aeruginosa ATCC27853” value stood at 1 µg/mL.
For `CC(C)(O)CN1CC(C#CC#Cc2cc3c(s2)C(=O)N(CC[C@](C)(C(=O)NO)S(C)(=O)=O)C3)C1` [Example 25, (2R)—N-hydroxy-4-(2-((1-(2-hydroxy-2-methylpropyl)azetidin-3-yl)buta-1,3-diyn-1-yl)-6-oxo-4,6-dihydro-5H-thieno[2,3-c]pyrrol-5-yl)-2-methyl-2-(methylsulfonyl)butanamide], the MIC against E. coli ATCC25922, in the assay with K. pneumoniae A-651 and in the assay with P. aeruginosa ATCC27853 was 1 µg/mL (≈ 1.97 µM) each time.
In the case of `C[C@@](CCN1Cc2cc(C#CC#C[C@H]3C[C@@H]3CO)sc2C1=O)(C(=O)NO)S(C)(=O)=O` [Example 19, (2R)—N-hydroxy-4-(2-(((1S,2S)-2-(hydroxymethyl)cyclopropyl)buta-1,3-diyn-1-yl)-6-oxo-4,6-dihydro-5H-thieno[2,3-c]pyrrol-5-yl)-2-methyl-2-(methylsulfonyl)butanamide], the MIC was determined as 0.125 µg/mL (≈ 0.277 µM) against E. coli ATCC25922, 0.25 µg/mL (≈ 0.555 µM) with K. pneumoniae A-651 and 0.5 µg/mL (≈ 1.11 µM) against P. aeruginosa ATCC27853.
Taken in the same sequence, the figures for `CC(C)(CO)c1ccc(C#Cc2cc3c(s2)C(=O)N(CCC(C)(C(=O)NO)S(C)(=O)=O)C3)cc1` (racemic) [Reference Example 1, (2RS)—N-hydroxy-4-(2-((4-(1-hydroxy-2-methylpropan-2-yl)phenyl)ethynyl)-6-oxo-4,6-dihydro-5H-thieno[2,3-c]pyrrol-5-yl)-2-methyl-2-(methylsulfonyl)butanamide] were 0.25 µg/mL (≈ 0.495 µM), 1 µg/mL (≈ 1.98 µM) and 2 µg/mL (≈ 3.96 µM).
Turning to `CN1CC(C#CC#Cc2ccc3c(c2)CN(CC[C@](C)(C(=O)NO)S(C)(=O)=O)C3=O)C1` [Example 8, (2R)—N-hydroxy-2-methyl-4-(5-((1-methylazetidin-3-yl)buta-1,3-diyn-1-yl)-1-oxoisoindolin-2-yl)-2-(methylsulfonyl)butanamide], the MIC was found to be 1 µg/mL (≈ 2.25 µM) against E. coli ATCC25922, 2 µg/mL (≈ 4.51 µM) with K. pneumoniae A-651 and 1 µg/mL (≈ 2.25 µM) in the assay on P. aeruginosa ATCC27853.
For the compound `C[C@@](CCN1Cc2cc(C#CC#C[C@@H]3C[C@@H](O)[C@@H](O)C3)sc2C1=O)(C(=O)NO)S(C)(=O)=O` [Example 21, (2R)-4-(2-(((1S,3R,4S)-3,4-dihydroxycyclopentyl)buta-1,3-diyn-1-yl)-6-oxo-4,6-dihydro-5H-thieno[2,3-c]pyrrol-5-yl)-N-hydroxy-2-methyl-2-(methylsulfonyl)butanamide], in the assay with E. coli ATCC25922, the “MIC for E. coli ATCC25922” value is 0.5 µg/mL. The “MIC for K. Pneumoniae A-651” value in the assay with K. pneumoniae A-651 came to 2 µg/mL. The “MIC for P. aeruginosa ATCC27853” value against P. aeruginosa ATCC27853 amounted to 1 µg/mL.
Take `C[C@@](CCN1Cc2cc(C#CC#CC3CN(C4COC4)C3)sc2C1=O)(C(=O)NO)S(C)(=O)=O` [Example 15, (2R)—N-hydroxy-2-methyl-2-(methylsulfonyl)-4-(2-((1-(oxetan-3-yl)azetidin-3-yl)buta-1,3-diyn-1-yl)-6-oxo-4,6-dihydro-5H-thieno[2,3-c]pyrrol-5-yl)butanamide]: the MIC with E. coli ATCC25922 was 0.5 µg/mL (≈ 1.02 µM); with K. pneumoniae A-651, 4 µg/mL (≈ 8.14 µM); against P. aeruginosa ATCC27853, 4 µg/mL (≈ 8.14 µM).
